Experimental data as given in PubChem BioAssay (NCI).
Values joined by “and” are separate entries in the source; they are usually repeats but may differ in a detail not shown here. Equal values may be shown once.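 Each compound was tested at five concentrations against cells in 96-well plates for 48 hours. The concentration for 50% growth inhibition is given as GI50. At the TGI there is no net growth.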

Experiments:
Experiment in all cases: DTP human tumour cell line panel, 48 h
SF-295 CNS = system: SF-295 CNS
MALME-3M melanoma = system: MALME-3M melanoma
RXF 393 renal = system: RXF 393 renal
SF-268 CNS = system: SF-268 CNS
NCI-H23 lung = system: NCI-H23 lung
COLO 205 colon = system: COLO 205 colon
SK-OV-3 ovarian = system: SK-OV-3 ovarian
MDA-MB-231 breast = system: MDA-MB-231 breast
T-47D breast = system: T-47D breast
SK-MEL-5 melanoma = system: SK-MEL-5 melanoma

| Structure (SMILES) | GI50 (SF-295 CNS) [µM] | TGI (SF-295 CNS) [µM] | GI50 (MALME-3M melanoma) [µM] | TGI (MALME-3M melanoma) | GI50 (RXF 393 renal) [µM] | TGI (RXF 393 renal) [µM] | GI50 (SF-268 CNS) [µM] | TGI (SF-268 CNS) [µM] | GI50 (NCI-H23 lung) [µM] | TGI (NCI-H23 lung) [µM] | GI50 (COLO 205 colon) [µM] | TGI (COLO 205 colon) [µM] | GI50 (SK-OV-3 ovarian) [µM] | TGI (SK-OV-3 ovarian) [µM] | GI50 (MDA-MB-231 breast) [µM] | TGI (MDA-MB-231 breast) [µM] | GI50 (T-47D breast) [µM] | TGI (T-47D breast) [µM] | GI50 (SK-MEL-5 melanoma) [µM] | TGI (SK-MEL-5 melanoma) [µM] |
| --- | --- | --- | --- | --- | --- | --- | --- | --- | --- | --- | --- | --- | --- | --- | --- | --- | --- | --- | --- | --- |
| Cn1ncc2cc(-c3cnc(N)c(Cl)c3N3CCC4(CCNC4=O)CC3)ccc21 | 31.2 | > 100 | 37.5 | > 100 µM | 8.11 | 54.3 | 21.3 | > 100 | 46.7 | > 100 | 11.9 | > 100 | 31.5 | > 100 | 23 | 86.3 | 15.7 | 84.2 | 11.3 | 23.8 |
| CCCC[C@@H]1NC(=O)[C@H](CCCCN)NC(=O)[C@H](CCCNC(=N)N)NC(=O)[C@H](CC(C)C)NC(=O)[C@@H](NC(=O)[C@H](Cc2cccc(Cl)c2)NC(=O)[C@@H]2CCCN2C(=O)[C@@H](NC(C)=O)C(C)C)CCSSC[C@@H](C(=O)N[C@@H](CCCCN)C(=O)N2CCC[C@H]2C(=O)N2CCC[C@H]2C(=O)N[C@@H](CCC(=O)O)C(N)=O)NC(=O)[C@H](Cc2ccccc2)NC(=O)[C@H](CO)NC(=O)[C@H](C)NC(=O)[C@@H]2CCCN2C1=O | > 50 | > 50 | > 50 | > 50 µM | > 50 | > 50 | > 50 | > 50 | > 50 | > 50 | > 50 | > 50 | > 50 | > 50 | > 50 | > 50 | > 50 | > 50 | > 50 | > 50 |
| CCC(=O)Sc1ccccc1C(=O)Nc1ccc(Cl)cc1 | 5.08 | 25.4 | 8.76 | 51.2 µM | 28.7 | > 100 | 9.67 | 52.9 | 6.43 | 39.2 | 13.6 | 32.1 | 18.7 | 53.9 | 11.2 | 45.7 | 8.96 | 38.6 | 4.22 | 17.4 |
| COC1=CC(c2ccc[nH]2)=N/C1=C\c1[nH]c(C)c(C(=O)CCC(=O)Oc2ccc3c(c2)CCC2C3CC[C@]3(C)C(=O)CC[C@@H]23)c1C (some centres not stated) | 21.4 | 85.3 | 29.2 | > 100 µM | 11.7 | > 87.4 | 5.58 | > 100 | 9.75 | > 100 | 21.5 | > 100 | > 100 | > 100 | 0.276 | 1.19 | 13.9 | > 100 | 3.48 | 19.6 |
| COc1ccc(/C=C2/CN(C(=O)c3ccccc3F)C/C(=C\c3ccc(OC)cc3)C2=O)cc1 | – | – | 5.83 | 21.3 µM | 1.85 | 3.68 | 4.28 | 18.9 | 5.03 | 24.3 | 3.82 | 12.3 | 4.58 | 18.3 | 2.88 | 9.04 | 5.65 | 76.2 | 1.88 | 4.14 |
| COc1ccc2c(c1)Oc1nc(N)c(C#N)c(N)c1C2Sc1ccc(SC)cc1 (configuration not stated) | 1.81 | 3.34 | 1.78 | 3.35 µM | 1.72 | 3.11 | 1.7 | 3.29 | – | – | 1.85 | 3.6 | 1.77 | 3.16 | 1.85 | 3.38 | 1.94 | 4.91 | 1.79 | 3.18 |
| Cc1c(Cl)ccc2c1NC(=O)C2(O)CC(=O)c1ccc(Cl)cc1Cl (configuration not stated) | – | > 50 | – | > 50 µM | – | 48.9 | – | > 50 | – | > 50 | – | > 50 | – | > 50 | – | > 50 | – | > 50 | – | > 50 |
| O=C(Cn1ccnc1[N+](=O)[O-])N(CCO)CCO | > 185 | > 753 | > 1250 | 224 µM and > 1250 µM | > 1250 | > 1250 | > 1250 | > 1250 | > 1250 | > 1250 | > 250 | > 1250 | > 58 | > 250 | – | > 250 | – | > 250 | > 1250 | > 1250 |
| COc1cc(OC)c(-c2cc(=O)c3c(OC)c(OC)c(OC)c(OC)c3o2)cc1OC | – | > 100 | – | > 100 µM | – | > 100 | – | > 100 | – | > 100 | – | > 100 | – | > 100 | – | > 100 | – | > 100 | – | > 100 |
| C[C@@H]1O[C@@H](O[C@H]2C[C@@H](O)[C@]3(CO)C4C(CC[C@]3(O)C2)[C@@]2(O)CC[C@H](C3=CC(=O)OC3)[C@@]2(C)C[C@H]4O)[C@H](O)[C@H](O)[C@H]1O (some centres not stated) | 0.0196 | 0.098 | 0.0197 | 0.0828 µM | 0.0115 | 0.0291 | 0.0189 | 0.0642 | 0.0163 | 0.0602 | 0.0747 | 0.151 | 0.0203 | 0.0731 | 0.111 | 0.286 | 0.0215 | 0.0847 | 0.016 | 0.0533 |
| O=C1C(=O)c2ccc(Br)cc2-c2cc(Br)ccc21 | 51.8 | > 100 | 7.74 | > 52.3 µM | 1.85 | 7.36 | 1.35 | 8.58 | 2.56 | 13.2 | > 100 | > 100 | 29.1 | > 87.5 | 0.82 | 2.54 | 1.41 | 3.92 | 3.89 | > 33 |
| Cc1cc(N(CCCl)CCCl)ccc1C=Nc1cccnc1 | 8.68 | > 95.7 | 22.4 | > 100 µM | 11.6 | 42.5 | 11.3 | > 100 | 6.93 | > 100 | 15.1 | > 70.8 | 7.57 | > 59.3 | 67.6 | > 100 | 1.6 | > 73.2 | 14.6 | 41.7 |
| c1ccc2c(c1)O[As](O[As]1Oc3ccccc3O1)O2 | 6.48 | 22.9 | 2.32 | 5.21 µM | 1.64 | 13 | 2.47 | 12.1 | – | – | 5.42 | 20.2 | 11.7 | 26 | 2.11 | 10.7 | 1.69 | 14.6 | 1.55 | 3.69 |
